SMILES strings stand for the structures.

Usually IC50 stands for the point on the concentration scale where inhibition reaches its midpoint.

Experiment [1] addresses T1, recombinant human FLAP protein (Homo sapiens, UniProt P20292).
T1 construct: made in house; host or cells: Sf9 insect cells (membrane fraction, 100,000 x g pellet)
T1 sequence (P20292 1-161): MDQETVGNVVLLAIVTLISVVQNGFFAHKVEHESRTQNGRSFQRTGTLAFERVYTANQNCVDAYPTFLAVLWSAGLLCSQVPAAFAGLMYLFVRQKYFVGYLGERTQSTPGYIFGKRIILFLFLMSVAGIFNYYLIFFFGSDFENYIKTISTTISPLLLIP
In words: FLAP binding assay (Scintillation Proximity Assay, displacement of [125I]L-691,831). Conditions: read-out: Human FLAP SPA Binding (IC50 nM). The method, then:
Compounds are assessed for the ability to bind to FLAP in a binding assay that measures compound-specific displacement of an iodinated (^125I) FLAP inhibitor via a Scintillation Proximity Assay format (adapted from S. Charleson et al., Mol. Pharmacol., 1992, 41, 873-879).
Cell pellets produced from sf9 insect cells expressing recombinant human FLAP protein are resuspended in buffer A [15 mM Tris-HCl (pH 7.5), 2 mM MgCl2, 0.3 mM EDTA, 1 mM PMSF]. The cells are lysed with a Dounce homogenizer and the material is centrifuged at 10,000×g for 10 minutes. The supernatant is then collected and centrifuged at 100,000×g for 60 minutes. To prepare membrane protein for an assay, an aliquot of the 100,000×g pellet is resuspended in 1 ml of buffer A, Dounce homogenized, and finally subjected to polytron mixing (30 seconds). Membrane protein (25 μl, 5 μg) is mixed with WGA SPA beads (Amersham) and stirred for 1 h. To an assay plate (Perkin Elmer FlexiPlate) is added 25 μl of test compound prepared in Binding buffer [100 mM Tris (pH 7.5), 140 mM NaCl, 5% glycerol, 2 mM EDTA, 0.5 mM TCEP, 0.05% Tween 20], 25 μl of [^125I]L-691,831 (an iodinated analog of MK-591, Charleson et al. Mol. Pharmacol., 41, 873-879, 1992) and finally 50 μl of the bead/protein mixture. (final concentrations: beads, 200 μg/well; protein, 5 μg/well; [^125I] probe, 0.08 nM/well (17 nCi/well). The plates are shaken for 2 h before reading on a Microbeta plate reader. Non-specific binding is determined by the addition of 10 μM cold L-691,831 compound.
(In general: Scintillation proximity formats need no separation of bound from free tracer.)

Experiment [2] concerns synthesis of LTB4 in human whole blood. In words: Human whole blood assay (calcimycin-stimulated LTB4 synthesis). The format is cell-based. Conditions: Homo sapiens; read-out: Human Whole Blood LTB4 Assay for FLAP (IC50 nM). The procedure: Compounds are additionally tested in a human whole blood assay to determine their ability to inhibit the synthesis of LTB4 in a cellular system. Compounds are combined with heparinized human whole blood and incubated for 15 minutes at 37° C. Calcimycin (20 μM final, prepared in phosphate-buffered saline, pH 7.4) is then added and the mixture is incubated for another 30 minutes at 37° C. The samples are centrifuged for 5 min at low speed (1500×g) and the plasma layer is removed. Plasma LTB4 concentrations are then measured using an antibody-based homogenous time-resolved fluorescence method (CisBio, Bedford, Mass.).

For `CS(=O)(=O)CCNC(=O)c1cccc2c(C3(c4ccc(-c5cnc(N)nc5)cc4)CCC3)c[nH]c12` [Example 3, 3-{1-[4-(2-aminopyrimidin-5-yl)phenyl]cyclobutyl}-N-[2-(methylsulfonyl)ethyl]-1H-indole-7-carboxamide], the 50% inhibitory concentration (IC50) in experiment [1] came to 1.4 nM; in experiment [2], 490 nM.

As to `Nc1ncc(-c2ccc(C3(c4c[nH]c5ccccc45)CCCC3)cc2)cn1` [Example 88, 5-{4-[1-(1H-indol-3-yl)cyclopentyl]phenyl}pyrimidin-2-amine], the half-inhibitory concentration (IC50) was 1.7 nM in experiment [1] and 430 nM in experiment [2].

Regarding `CC(C)C(C)(c1ccc(-c2cnc(N)nc2)cc1)c1c[nH]c2cc(F)ccc12` (stereo not shown) [Example 60, 5-{4-[2-(6-fluoro-1H-indol-3-yl)-3-methylbutan-2-yl]phenyl}pyrimidin-2-amine], the IC50 was found to be 0.86 nM in experiment [1] and 170 nM in experiment [2].

For the molecule `CC(C)C(C)(c1ccc(-c2cnc(N)nc2)cc1)c1c[nH]c2cc(OC3CCOC3)ccc12` (stereo not shown) [Example 54, 5-(4-{3-methyl-2-[6-(tetrahydrofuran-3-yloxy)-1H-indol-3-yl]butan-2-yl}phenyl)pyrimidin-2-amine], the IC50 stood at 8.3 nM in experiment [1] and 840 nM in experiment [2].

Regarding `Nc1ncc(-c2ccc(C3(c4c[nH]c5c(C(=O)N6CCC6)cccc45)CCC3)cc2)cn1` [Example 149, (3-{1-[4-(2-aminopyrimidin-5-yl)phenyl]cyclobutyl}-1H-indol-7-yl)(azetidin-1-yl)methanone], the half-inhibitory concentration (IC50) in experiment [1] worked out at 2 nM; in experiment [2], 110 nM.

Consider `Nc1ncc(-c2ccc(C3(c4nnc(-c5ccccc5)o4)CCC3)cc2)cn1` [Example 93, 5-{4-[1-(5-phenyl-1,3,4-oxadiazol-2-yl)cyclobutyl]phenyl}pyrimidin-2-amine], for which the half-maximal inhibitory concentration (IC50) is 29 nM in experiment [1] and over 5000 nM in experiment [2].

In the case of `Nc1ncc(-c2ccc(C3(c4nc5ccccc5[nH]4)CCOCC3)cc2)cn1` [Example 75, 5-{4-[4-(1H-benzimidazol-2-yl)tetrahydro-2H-pyran-4-yl]phenyl}pyrimidin-2-amine], the concentration for half-maximal inhibition (IC50) in experiment [1] was 380 nM; in experiment [2] it was over 5000 nM.

As for `CC(C)C(C)(c1ccc(-c2cnc(N)nc2)cc1)c1c[nH]c2c(C(=O)N(C)CCO)cccc12` (stereo not shown) [Example 99, 3-[1-[4-(2-aminopyrimidin-5-yl)phenyl]-1,2-dimethyl-propyl]-N-(2-hydroxyethyl)-N-methyl-1H-indole-7-carboxamide], the IC50 worked out at 0.93 nM in experiment [1] and 1600 nM in experiment [2].

On to `Cc1ccc(-c2cc(C3(c4ccc(-c5cnc(N)nc5)cc4)CCC3)n(C)n2)cn1` [Example 19, 5-(4-{1-[1-methyl-3-(6-methylpyridin-3-yl)-1H-pyrazol-5-yl]cyclobutyl}phenyl)pyrimidin-2-amine], for which the results for the half-inhibitory concentration (IC50) in experiment [1] and in experiment [2] were 510 nM and over 5000 nM, respectively.

`Cn1cc(-c2coc(C(C)(c3ccc(-c4cnc(N)nc4)cc3)C3CC3)n2)cn1` (stereo not shown) [Example 171, 5-(4-{1-cyclopropyl-1-[4-(1-methyl-1H-pyrazol-4-yl)-1,3-oxazol-2-yl]ethyl}phenyl)pyrimidin-2-amine]: the half-maximal inhibitory concentration (IC50) in experiment [1] stood at 7.4 nM; in experiment [2] it was 140 nM.

For `NC(=O)c1cccc2c(C3(c4ccc(-c5cnc(N)nc5)cc4)CCC3)c[nH]c12` [Example 117, 3-{1-[4-(2-aminopyrimidin-5-yl)phenyl]cyclobutyl}-1H-indole-7-carboxamide], the half-maximal inhibitory concentration (IC50) in experiment [1] stood at 1.1 nM; in experiment [2] it was 30 nM.

`COC(=O)c1cc(-c2ccc(F)cc2)c(C2(c3ccc(-c4cnc(N)nc4)cc3)CCC2)[nH]1` [Example 166, methyl 5-{1-[4-(2-aminopyrimidin-5-yl)phenyl]cyclobutyl}-4-(4-fluorophenyl)-1H-pyrrole-2-carboxylate]: the IC50 in experiment [1] worked out at 72 nM; in experiment [2], 3600 nM.

`CC(c1ccc(-c2cnc(N)nc2)cc1)(c1cc(O)n(-c2ccccc2)n1)C1CC1` (stereo not shown) [Example 175, 3-{1-[4-(2-aminopyrimidin-5-yl)phenyl]-1-cyclopropylethyl}-1-phenyl-1H-pyrazol-5-ol]: the IC50 in experiment [1] was 10 nM; in experiment [2] it was 1100 nM.

For `CC(C)[C@](C)(c1ccc(-c2cnc(N)nc2)nc1)c1cc(-c2cnn(C)c2)on1` [Example 191, 5-(5-{(2R)-3-methyl-2-[5-(1-methyl-1H-pyrazol-4-yl)-1,2-oxazol-3-yl]butan-2-yl}pyridin-2-yl)pyrimidin-2-amine], the concentration for half-maximal inhibition (IC50) in experiment [1] was 7.5 nM; in experiment [2], 56 nM.

For `CN(C)CCn1cc(-c2cc([C@](C)(c3ccc(-c4cnc(N)nc4)cc3)C3CC3)no2)cn1` [Example 30, 5-{4-[(1S)-1-cyclopropyl-1-(5-{1-[2-(dimethylamino)ethyl]-1H-pyrazol-4-yl}-1,2-oxazol-3-yl)ethyl]phenyl}pyrimidin-2-amine], the 50% inhibitory concentration (IC50) was determined as 330 nM in experiment [1] and 1200 nM in experiment [2].

For `CN(C)C(=O)Cn1cc(-c2coc([C@@](C)(c3ccc(-c4cnc(N)nc4)cc3)C3CC3)n2)cn1` [Example 195, 2-[4-(2-{(1R)-1-[4-(2-aminopyrimidin-5-yl)phenyl]-1-cyclopropylethyl}-1,3-oxazol-4-yl)-1H-pyrazol-1-yl]-N,N-dimethylacetamide], the concentration for half-maximal inhibition (IC50) amounted to 18 nM in experiment [1] and 280 nM in experiment [2].

For `COC(=O)c1c[nH]cc1C1(c2ccc(-c3cnc(N)nc3)cc2)CCC1` [Example 162, methyl 4-[1-[4-(2-aminopyrimidin-5-yl)phenyl]cyclobutyl]-1H-pyrrole-3-carboxylate], the IC50 was 210 nM in experiment [1] and 1500 nM in experiment [2].

For the molecule `CC(C)C(C)(c1ccc(-c2cnc(N)nc2)cc1)c1c[nH]c2cc(C(=O)N(C)CCO)ccc12` (stereo not shown) [Example 79, 3-{2-[4-(2-aminopyrimidin-5-yl)phenyl]-3-methylbutan-2-yl}-N-(2-hydroxyethyl)-N-methyl-1H-indole-6-carboxamide], the IC50 in experiment [1] was found to be 8.5 nM; in experiment [2], 2600 nM.

Regarding `Cn1cc(-c2[nH]c3ccccc3c2C2(c3ccc(-c4cnc(N)nc4)cc3)CCC2)cn1` [Example 189], the half-maximal inhibitory concentration (IC50) in experiment [1] came out at 5.3 nM; in experiment [2] it was 280 nM.

As to `CCC(C)(c1ccc(-c2cnc(N)nc2)cc1)c1c[nH]c2ccccc12` (stereo not shown) [Example 91, 5-{4-[2-(1H-indol-3-yl)butan-2-yl]phenyl}pyrimidin-2-amine], the values for the IC50 in experiment [1] and in experiment [2] were 2.7 nM and 230 nM, respectively.

On to `CC(C)C(C)(c1ccc(-c2cnc(N)nc2)cc1)c1cn(Cc2ccccn2)c2cccc(F)c12` (stereo not shown) [Example 40, 5-(4-{2-[4-fluoro-1-(pyridin-2-ylmethyl)-1H-indol-3-yl]-3-methylbutan-2-yl}phenyl)pyrimidin-2-amine], for which the IC50 in experiment [1] was found to be 2.6 nM; in experiment [2], 540 nM.

Take `CC(C)C(C)(c1ccc(-c2cnc(N)nc2)cc1)c1cc2c(F)cccc2[nH]1` (stereo not shown) [Example 62, 5-{4-[2-(4-fluoro-1H-indol-2-yl)-3-methybutan-2-yl]phenyl}pyrimidin-2-amine]: the IC50 turned out to be 18 nM in experiment [1] and 2300 nM in experiment [2].

For the molecule `Cc1cn(C(C)(c2ccc(-c3cnc(N)nc3)cc2)C(C)C)c2ccccc12` (stereo not shown) [Example 43, 5-{4-[3-methyl-2-(3-methyl-1H-indol-1-yl)butan-2-yl]phenyl}pyrimidin-2-amine], the IC50 in experiment [1] amounted to 30 nM; in experiment [2] it was 1500 nM.

For `Nc1ncc(-c2ccc(C3(c4nnc(-c5ccccc5)[nH]4)CCC3)cn2)cn1` [Example 121, 5-{5-[1-(5-phenyl-4H-1,2,4-triazol-3-yl)cyclobutyl]pyridin-2-yl}pyrimidin-2-amine], the figures for the IC50 in experiment [1] and in experiment [2] were 8.7 nM and 810 nM, respectively.

On to `CC(C)C(C)(c1ccc(-c2cnc(N)nc2)cc1)c1cn(C)c2ncccc12` (stereo not shown) [Example 39, 5-{4-[3-methyl-2-(1-methyl-1H-pyrrolo[2,3-b]pyridin-3-yl)butan-2-yl]phenyl}pyrimidin-2-amine], for which the IC50 in experiment [1] worked out at 3.3 nM; in experiment [2], 290 nM.

For the molecule `CC(C)C(C)(c1ccc(-c2cnc(N)nc2)cc1)c1cn(Cc2nnn[nH]2)c2ccccc12` (stereo not shown) [Example 73, 5-(4-{3-methyl-2-[1-(1H-tetrazol-5-ylmethyl)-1H-indol-3-yl]butan-2-yl}phenyl)pyrimidin-2-amine], the IC50 is 1.3 nM in experiment [1] and over 5000 nM in experiment [2].

(Values after patent US9174980B2, “Heterocyclic compounds as inhibitors of leukotriene production” (Boehringer Ingelheim International GmbH, priority 2012, dated 2015).)
